Where two headings read alike, the source gives them in different places.
What was measured:
[1] = test system: interleukin-1β production; assay: Inhibitory activity against interleukin-1β production (LPS-stimulated HL-60 cells, ELISA); assay type: cell-based; conditions: lipopolysaccharide 10 μg/mL, 3 days
Description: Inhibitory Activity Against Interleukin-1β Production
HL-60 cells were cultured for 4 days until confluence on RPMI 1640 medium with 10% fetal bovine serum (FBS) added thereto. The medium was centrifuged. The supernatant was discarded, and the cells were then suspended at 1×10^6 cells/mL on RPMI 1640 medium with 3% FBS, and lipopolysaccharide was added to give a final concentration of 10 μg/mL. The culture was inoculated at 1 mL/well to a 24-well plate. A sample compound was added at 1 μL/well, followed by culturing for 3 days. Three days later, the amount of interleukin-1β in each culture was determined by ELISA. Each IC50 value was determined by a comparison in yield with a control to which no test sample was added.

Water solubility test = assay type: physicochemical; conditions: for Solubility (%): purified water, from amount of water required for dissolution; for Dissolution in amount of added water: 100 mL purified water added
Description: Each sample compound was weighed in the amount shown in Table 3, to which purified water was added in 0.05 mL aliquots. The solubility (%) of the compound was determined based on the amount of water required for its dissolution.

[2] = Homo sapiens, 72 h, Table 1, read-out: IL-1β production inhibiting activity IC50
[3] = Homo sapiens, 72 h, Table 2, read-out: IL-1β production inhibiting activity IC50

Row | SMILES | melting point [°C] | IC50 [1, 2] [µM] | Solubility (%) (Water solubility test) | IC50 [1, 3] [µM] | other results
1 | Cc1ccc(-c2cc(CN(C)C)c(=O)n(CC(C)C)n2)cc1F.Cl [Example 8, 4-dimethylaminomethyl-6-(3-fluoro-4-methylphenyl)-2-isobutyl-2H-pyridazin-3-one hydrochloride] | 246.5 to 248.5 | 3.45 |  |  | 
2 | COc1ccc(-c2cc(CN3CCNCC3)c(=O)n(CC3CC3)n2)cc1F.Cl.Cl [Example 21, 2-cyclopropylmethyl-6-(3-fluoro-4-methoxyphenyl)-4-(1-piperazinyl)methyl-2H-pyridazin-3-one dihydrochloride] |  | 1.01 | >20 |  | 
3 | Cc1ccc(-c2cc(CN(C)C)c(=O)n(CC(C)C)n2)cc1.Cl [Example 45, 4-dimethylaminomethyl-2-isobutyl-6-(4-methylphenyl)-2H-pyridazin-3-one hydrochloride] |  | 6.21 | 4 |  | 
4 | CCN(CC)Cc1cc(-c2ccc(C)cc2)nn(CC(C)C)c1=O.Cl [Example 47, 4-diethylaminomethyl-2-isobutyl-6-(4-methylphenyl)-2H-pyridazin-3-one hydrochloride] |  | 5.2 | >20 |  | 
5 | CC(C)Cn1nc(-c2ccc(F)c(F)c2)cc(CN(CCO)CCO)c1=O.Cl [Example 108, 4-N,N-bis(2-hydroxyethyl)aminomethyl-6-(3,4-difluorophenyl)-2-isobutyl-2H-pyridazin-3-one hydrochloride] |  |  | >20 |  | IC50 ([1]; Table 1, read-out: IL-1β production inhibiting activity IC50): 3.44 µM
6 | CSc1ccc(-c2cc(CN3CCN(C)CC3)c(=O)n(CC3CC3)n2)cc1.Cl.Cl [Example 149, 2-cyclopropylmethyl-4-(4-methyl-1-piperazinyl)methyl-6-[4-(methylthio)phenyl]-2H-pyridazin-3-one dihydrochloride] | 234.6 to 239.2 | 1.63 | >10 |  | 
7 | CSc1ccc(-c2cc(CN(C)C)c(=O)n(CC(C)C)n2)cc1.Cl [Example 161, 4-dimethylaminomethyl-2-isobutyl-6-[4-(methylthio)phenyl]-2H-pyridazin-3-one hydrochloride] | 216.8 to 218.4 | 2.78 |  |  | 
8 | C#CCNCc1cc(-c2ccc(SC)cc2)nn(CC(C)C)c1=O.Cl [Example 163, 2-isobutyl-6-[4-(methylthio)phenyl]-4-propargylaminomethyl-2H-pyridazin-3-one hydrochloride] | 197.5 to 198.4 | 2.78 |  |  | 
9 | COc1ccc(-c2cc(CN)c(=O)n(CC3CCCC3)n2)cc1F.Cl [Example 188, 4-aminomethyl-2-cyclopentylmethyl-6-(3-fluoro-4-methoxyphenyl)-2H-pyridazin-3-one hydrochloride] |  |  | 0.08 |  | 
10 | COc1ccc(-c2cc(CN3CCN(C)CC3)c(=O)n(Cc3ccc(F)c(F)c3)n2)cc1F [Example 207, 2-(3,4-difluorobenzyl)-6-(3-fluoro-4-methoxyphenyl)-4-(4-methyl-1-piperazinyl)methyl-2H-pyridazin-3-one] | 135.4 to 136 |  |  | 2.7 | 
11 | COc1ccc(-c2cc(CCCN3CCNCC3)c(=O)n(CC3CC3)n2)cc1F.Cl.Cl [Example 214, 2-cyclopropylmethyl-6-(3-fluoro-4-methoxyphenyl)-4-[3-(1-piperazinyl)propyl]-2H-pyridazin-3-one dihydrochloride] |  |  | 10 |  | 
12 | CCOC(=O)Nc1cc(-c2ccc(OC)cc2)nn(C/C=C/c2ccc(Cl)cc2)c1=O [compound 1, reference compound] |  |  | <0.001 |  | Dissolution in amount of added water (Water solubility test): (insoluble)
13 | CNC(=O)c1cc(-c2ccc(OC)cc2)nn(CC(C)C)c1=O [compound 2, reference compound] |  |  | <0.001 |  | Dissolution in amount of added water (Water solubility test): (insoluble)
14 | COc1ccc(-c2cc(C(=O)O)c(=O)n(C/C=C/c3ccc(Cl)cc3)n2)cc1 [compound 4, reference compound] |  |  | <0.001 |  | Dissolution in amount of added water (Water solubility test): (insoluble)

Continued, in another order:

Row | melting point [°C] | IC50 [1, 2] [µM] | Solubility (%) (Water solubility test) | IC50 [1, 3] [µM] | SMILES | other results
15 |  | 5.4 | 1 |  | COc1ccc(-c2cc(CN3CCN(Cc4ccccc4)CC3)c(=O)n(CC3CC3)n2)cc1F.Cl.Cl [Example 18, 4-(4-benzyl-1-piperazinyl)methyl-2-cyclopropylmethyl-6-(3-fluoro-4-methoxyphenyl)-2H-pyridazin-3-one dihydrochloride] | 
16 |  | 5.5 | >20 |  | Cc1cc(-c2cc(CN(C)C)c(=O)n(CC(C)C)n2)ccc1F.Cl [Example 89, 4-dimethylaminomethyl-6-(4-fluoro-3-methylphenyl)-2-isobutyl-2H-pyridazin-3-one hydrochloride] | 
17 | 112 to 113 | 0.87 |  |  | COc1ccc(-c2cc(CN3CCN(C)CC3)c(=O)n(Cc3ccc(F)cc3)n2)cc1F [Example 189, 2-(4-fluorobenzyl)-6-(3-fluoro-4-methoxyphenyl)-4-(4-methyl-1-piperazinyl)methyl-2H-pyridazin-3-one] | 
18 | 142 to 143 | 0.64 |  |  | COc1ccc(-c2cc(CN3CCNCC3)c(=O)n(Cc3ccc(F)cc3)n2)cc1F [Example 192, 2-(4-fluorobenzyl)-6-(3-fluoro-4-methoxyphenyl)-4-(1-piperazinyl)methyl-2H-pyridazin-3-one] | 
19 |  |  | 0.2 |  | COc1ccc(-c2cc(CN)c(=O)n(Cc3ccc(F)cc3)n2)cc1F.Cl [Example 195, 4-aminomethyl-2-(4-fluorobenzyl)-6-(3-fluoro-4-methoxyphenyl)-2H-pyridazin-3-one hydrochloride] | 
20 |  |  | 0.06 |  | COc1ccc(-c2cc(CN)c(=O)n(Cc3ccc(Cl)cc3)n2)cc1F.Cl [Example 206, 4-aminomethyl-2-(4-chlorobenzyl)-6-(3-fluoro-4-methoxyphenyl)-2H-pyridazin-3-one hydrochloride] | 
21 | 129.9 to 130.4 |  |  | 6.1 | COc1ccc(-c2cc(CN(C)C)c(=O)n(Cc3ccc(F)c(F)c3)n2)cc1F [Example 208, 2-(3,4-difluorobenzyl)-4-dimethylaminomethyl-6-(3-fluoro-4-methoxyphenyl)-2H-pyridazin-3-one] | 
22 | 123.9 to 125.5 |  |  | 2.8 | COc1ccc(-c2cc(CN3CCN(C)CC3)c(=O)n(CC=Cc3ccc(Cl)cc3)n2)cc1F [Example 209, 2-(4-chlorocinnamyl)-6-(3-fluoro-4-methoxyphenyl)-4-(4-methyl-1-piperazinyl)methyl-2H-pyridazin-3-one] | 
23 |  |  | 10 |  | COc1ccc(-c2cc(CCCN)c(=O)n(CC3CC3)n2)cc1F.Cl [Example 217, 4-(3-aminopropyl)-2-cyclopropylmethyl-6-(3-fluoro-4-methoxyphenyl)-2H-pyridazin-3-one hydrochloride] | 
24 |  |  |  | 6.8 | Cc1cc(-c2cc(CN3CCN(C)CC3)c(=O)n(CCCc3ccc(Cl)cc3)n2)ccc1F [Example 218, 2-[3-(4-chlorophenyl)propyl]-6-(4-fluoro-3-methylphenyl)-4-(4-methyl-1-piperazinyl)methyl-2H-pyridazin-3-one] | 
25 | 133.3 to 133.8 |  |  | 5.8 | Cc1cc(-c2cc(CN3CCN(C)CC3)c(=O)n(Cc3ccc(Cl)cc3)n2)ccc1F [Example 222, 2-(4-chlorobenzyl)-6-(4-fluoro-3-methylphenyl)-4-(4-methyl-1-piperazinyl)methyl-2H-pyridazin-3-one] | 
26 | 80 to 85 |  |  | 5.2 | Cc1cc(-c2cc(CCCN)c(=O)n(Cc3ccccc3Cl)n2)ccc1F [Example 227, 4-(3-aminopropyl)-2-(2-chlorobenzyl)-6-(4-fluoro-3-methylphenyl)-2H-pyridazin-3-one] | 
27 |  |  |  | 4 | Cc1cc(-c2cc(CN3CCN(C)CC3)c(=O)n(CCc3ccc(Cl)cc3)n2)ccc1F [Example 230, 2-[2-(4-chlorophenyl)ethyl]-6-(4-fluoro-3-methylphenyl)-4-(4-methyl-1-piperazinyl)methyl-2H-pyridazin-3-one] | 
28 |  |  |  | 5.7 | Cc1cc(-c2cc(CN3CCN(C)CC3)c(=O)n(Cc3c(Cl)cccc3Cl)n2)ccc1F [Example 231, 2-(2,6-dichlorobenzyl)-6-(4-fluoro-3-methylphenyl)-4-(4-methyl-1-piperazinyl)methyl-2H-pyridazin-3-one] | 
29 |  |  |  | 6.4 | COc1ccc(-c2cc(CN3CCN(C)CC3)c(=O)n(CCCc3ccccc3Cl)n2)cc1F [Example 241, 2-[3-(2-chlorophenyl)propyl]-6-(3-fluoro-4-methoxyphenyl)-4-(4-methyl-1-piperazinyl)methyl-2H-pyridazin-3-one] | 
30 |  |  |  | 7.7 | COc1ccc(-c2cc(CN3CCN(C)CC3)c(=O)n(CCCc3ccc(Cl)cc3)n2)cc1F [Example 242, 2-[3-(4-chlorophenyl)propyl]-6-(3-fluoro-4-methoxyphenyl)-4-(4-methyl-1-piperazinyl)methyl-2H-pyridazin-3-one] | 
